From article PMC8750417, “Intracellular Amplifiers of Reactive Oxygen Species Affecting Mitochondria as Radiosensitizers” (Cancers, 2021) come the findings set out here.

Where “and” joins values, the source holds several entries; their conditions need not be identical. Equal entries are not always repeated. Where two headings read alike, the source gives them in different places.

One assay concerns SAS cells. In words: Cytotoxicity MTT assay, SAS. The assay is classed as cell-based, human. The conditions noted are these: for EC50: read-out: 50% cell survival (EC50). The method, then: (§1) Optimization of concentration of prodrugs and controls / MTT assay
(§2) The MTT assay was also applied to assess the impact of various drugs (0.01-100 µM) on the viability of the two human head and neck squamous carcinoma cell (HNSCC) lines SAS and FaDu as well as retinal pigment epithelial ARPE-19 cells and human fibroblasts (HF). Cells were seeded into 96-well plates at concentrations of 4000 and 2000 cells per […]
(§3) h before exposure to the drugs. All drug dilutions were prepared from 20 mM stock solutions in DMSO. The final DMSO concentration was set to 0.5% in all sample s including control. After completion of the treatment, the wells were processed according to the routine MTT protocol as described above; the formazan absorbance was then measured on a Biotek Epoch Microplate Spectrophotometer at 590 nm and corrected for the background signal at 620 nm. N≥3 independent experiments were performed for each drug candidate, cell type and treatment interval. Cell survival was recorded as function of the drug concentration, and dose-response curves were fitted with the Boltzmann equation where appropriate. We calculated the half-maximal response (EC50) as well as the EC20 (80% survival) according to the line curve (see Tables S6-S8). EC20-values were used as a basis to select the compound-specific non-toxic drug concentrations for combination with radiotherapy.

The test system of another assay is human fibroblasts (HF). Kind of assay: Cytotoxicity MTT assay, human fibroblasts. The assay is classed as cell-based. Particulars: read-out: 50% cell survival (EC50). As to the method: (§4) Study of synergy of prodrugs with radiotherapy for SAS and FaDu cells
as §1, §2, §3
A general note: Tetrazolium assays rely on reduction of a dye to a coloured formazan, in cell work by metabolically active cells.

For a further assay, the system named is Jurkat cells. Kind of assay: Jurkat flow cytometry (AnnexinA5/PI viability, DiIC1(5) MMP, monobromobimane GSH, cell cycle). The conditions noted are these: for IC50: 48 h incubation. In kind it is cell-based, human. The method, then: Jurkat cells The cells were counted in MUSE Cell Analyzer using MUSE® Count &Viability Assay Kit (Merck-Millipore, Billerica, MA, USA) and adjusted to a density of 1.0 x 10^5/ml in RPMI 1640 medium (with 10% FCS and 1% glutamine). 9.000 cells per well per 90 µL were seeded into 96 well culture plates. The 30 mM prodrug stock solutions in DMSO were diluted to 300 µM, 100 µM, 30 µM and 10 µM in cell culture medium and 10 µL of the dilutions was pipetted to the cells, receiving final test concentrations of 30 µM, 10 µM, 3 µM and 1 µM. Every concentration was tested in triplicates. Cells with corresponding amounts of DMSO served as negative controls. After 48 h cells were mixed and 25 µL of […]
the cell suspension was incubated with 200 µL of freshly prepared staining solution, consisting of AnnexinA5-Fitc (1 µL), 1,1′,3,3,3′,3′-hexamethylindodicarbocyanine iodide (DiIC1(5), 0.4 µL) (both from ThermoFisher Scientific, Waltham, MA, USA), propidium iodide (PI, 67 ng) and monobromobimane (MBB, 33 µM, both from Sigma-Aldrich, Taufkirchen, Germany) per 1 ml Ringer’s solution (Fresenius Kabi AG, Bad Homburg, Germany). Cells were incubated for 20 min at 4°C and then analyzed in Gallios cytofluorometer™ (Beckman Coulter, Fullerton, CA, USA). Fitc and propidium iodide were excited at 488 nm; Fitc fluorescence was recorded on the FL1 sensor (525/38 nm band pass, BP) and propidium iodide fluorescence was detected on FL3 sensor (620/30 nm BP), DiIC1(5) fluorescence was excited at 638 nm and detected on FL6 sensor at 675/20 nm BP, and monobromobimane fluorescence was excited at 405 nm and detected on FL9 sensor at 430/40 nm BP. To eliminate any fluorescence bleed-through, electronic compensation was used. Data were analyzed employing Kaluza™ software Version 1.2 (Beckman Coulter, Fullerton, CA, USA) and processed in Microsoft Excel (Figures S51-S54, Table S5). Cells negative for Annexin A5-Fitc and propidium iodide were considered viable. IC50 values were determined by fitting the % values of Ax-PI- cells versus drug concentration with a sigmoidal curve using GraphPad Prism software. Reduced glutathione (an intracellular thiol) can be detected by monobromobimane, a dye that becomes fluorescent after non-enzymatic binding to thiols.[S3] For analysis of amount of mitochondrial membrane potential or reduced glutathione the mean fluorescence index (MFI) was determined from viable cells by gating on Ax -PI- events.
Table S5. Effects of the prodrugs on the viability of Jurkat cell lines (IC50 values) after 48

Another assay has as its system FaDu cells. In words: Cytotoxicity MTT assay, FaDu. In kind it is cell-based, human. The conditions noted are these: for EC50: read-out: 50% cell survival (EC50). As to the method: as §1, §2, §3
Another assay has as its system BL-2 cells. Kind of assay: Cell viability, MTT assay, BL-2. In kind it is cell-based, human. The method, then:
Determination of viability of cells in the presence of prodrugs and controls A2780 and BL-2 cells The medium was removed, and the cells were washed two times with DPBS, trypsinated, and resuspended in RPMI 1640 medium (A2780) supplemented with 5% FBS (for 24 h and 48 h assay) or 10% FBS (for 96 h assay) , 1% L-glutamine, and 1% penicillin/streptomycin.
A2780 cells: This suspension was spread in the wells of a 96 -well microtiter plate (25000 cells for A2780 per well per 100 μL) and left standing at 37 °C in the chamber filled with CO2 (5%) for overnight. Stock solutions of prodrugs of different concentra tions (1 μL, solvent dmso, final concentrations in wells were 2, 5, 10, 30, 50 μM) were added to the wells and incubated for specific periods of time. Four experiments were conducted for each concentration of the prodrug. Finally, 3-(4,5-dimethylthiazol-2-yl)-2,5-diphenyltetrazolium bromide (MTT, 20 μL of the solution prepared by dissolving MTT (5 mg) in DPBS buffer (1 mL)) was added to each well, incubated for 3 h, treated with sodium dodecyl sulfate (SDS) solution (90 μL, 10% solution in 0.01 M aqueous HC l), and incubated overnight. Afterward, the intensity of the absorbance at 590 nm was measured.
MTT is converted in live cells to blue dye with the absorbance maximum λ max at 590 nm.
The absorbance at 690 nm was taken as a baseline value. The baseline corrected absorbance at 590 nm (A(590 nm) − A(690 nm)) was applied to calculate the relative number of viable cells. IC50 values were determined by fitting the experimental data expressing the number of viable cells (%, Y-axis) versus drug concentration (μM, X-axis) with a line curve and the X-axis value corresponding to 50% viability was considered as IC50 value according to the line curve (Figure S50, Table S2).
BL-2 cells: The cells were centrifuged, the medium was removed, and the cells were washed two times with DPBS and re-suspended in RPMI 1640 medium containing 5% (48 h incubation) or 10% FBS (96 h incubation), 1% L-glutamine, and 1% penicillin/ streptomycin. This suspension was spread in the wells of a 96-well microtiter plate (50000 cells per well per 100 μL). Other steps were identical to those was described in determination of viability of adherent cells (given above) (Table S3).

For a further assay, the system named is ARPE-19 cells. Kind of assay: Cytotoxicity MTT assay, ARPE-19. The assay is classed as cell-based. The conditions noted are these: read-out: 50% cell survival (EC50). The method, then:
as §4, §1, §2, §3

With `CC1(C)OB(c2ccc(COC(=O)N(Cc3cn(Cc4ccc(Cn5cc(Cc6ccccc6)nn5)cc4)nn3)[c-]3cccc3)cc2)OC1(C)C.[Fe+2].c1cc[cH-]c1` [2c], the “80% cell survival (EC20)” value is given as more than 50 µM with SAS cells (24h), 10.4 ± 6.8 µM in the assay on SAS cells (48h), more than 50 µM with FaDu cells (24h) and 18.0 ± 5.1 µM with FaDu cells (48h). The EC50 in the assay on SAS cells (24h), in the assay on SAS cells (48h), in the assay on human fibroblasts (HF) (24h), in the assay with human fibroblasts (HF) (48h), in the assay on FaDu cells (24h) and in the assay on FaDu cells (48h) was more than 50 µM in each case. In addition, the 50% effective concentration (EC50) – broadly, the midpoint of the concentration-response curve – is more than 50 µM in the assay on ARPE-19 cells (ARPE-19, 24h) and more than 50 µM with ARPE-19 cells (ARPE-19, 48h). Also, the “effect on MMP” value in the assay with Jurkat cells (48 h) is reported as “decrease”. For the same compound, the “effect on cell cycle” value in the assay with Jurkat cells (48 h) was “cell-cycle arrest in the G0/G1 phase”. The “effect on intracellular GSH amount” value in the assay on Jurkat cells (48 h) is listed as “unaffected”. The “mechanism of cell death” value with Jurkat cells (48 h, Annexin A5/PI) was “mainly via necrosis”. The 50% inhibitory concentration (IC50) (in general, the midpoint of a concentration-inhibition curve) came to 5 ± 2 µM in the assay with Jurkat cells; 40.1 ± 6.4 µM in the assay with BL-2 cells (BL-2, 48 h incubation); 5.7 ± 2.7 µM in the assay on BL-2 cells (BL-2, 96 h incubation).

Regarding `CC1(C)OB(c2ccc(COC(=O)N(Cc3cccc(CN4CCCCC4)c3)[c-]3cccc3)cc2)OC1(C)C.[Fe+2].c1cc[cH-]c1` [5b], the “80% cell survival (EC20)” value in the assay on SAS cells (24h) was 7.0 ± 1.5 µM; with SAS cells (48h), 2.4 ± 1.3 µM; in the assay with FaDu cells (24h), 11.5 ± 1.3 µM. Further, the EC50 stood at 18.7 ± 4.7 µM in the assay on SAS cells (24h); 5.8 ± 0.8 µM in the assay with SAS cells (48h); 35.5 ± 14.9 µM in the assay on human fibroblasts (HF) (24h); 20.8 ± 4.6 µM in the assay with human fibroblasts (HF) (48h); 26.3 ± 3.4 µM in the assay with FaDu cells (24h); 19.8 ± 0.3 µM in the assay with FaDu cells (48h). Besides, the EC50 is 40.4 ± 2.5 µM in the assay with ARPE-19 cells (ARPE-19, 24h) and 26.6 ± 8.3 µM in the assay on ARPE-19 cells (ARPE-19, 48h). The 50% inhibitory concentration (IC50) came out at 7.2 ± 0.1 µM with Jurkat cells; 5 ± 2 µM with BL-2 cells (BL-2, 48 h incubation); 5 ± 3 µM in the assay with BL-2 cells (BL-2, 96 h incubation).

For the compound `CCOC(=O)CCCCCn1cc(CN(C(=O)OCc2ccc(B3OC(C)(C)C(C)(C)O3)cc2)[c-]2cccc2)nn1.[Fe+2].c1cc[cH-]c1` [compound 1], the “effect on MMP” value in the assay with Jurkat cells (48 h) is listed as “slight increase”. The “effect on intracellular GSH amount” value in the assay on Jurkat cells (48 h) is reported as “slight increase”. In addition, the IC50 in the assay with Jurkat cells is 30 ± 4 µM; in the assay on BL-2 cells (BL-2, 48 h incubation) it was 35 ± 2 µM; in the assay with BL-2 cells (BL-2, 96 h incubation) it was 16.9 µM and 17 µM.

Consider `[Fe+2].c1cc[cH-]c1.c1cc[cH-]c1` [compound 6, ferrocene], for which the “80% cell survival (EC20)” value in the assay on SAS cells (24h), with SAS cells (48h), in the assay with FaDu cells (24h) and with FaDu cells (48h) was more than 50 µM throughout. Also, the half-maximal effective concentration (EC50) with SAS cells (24h), in the assay with SAS cells (48h), in the assay on human fibroblasts (HF) (24h), in the assay with human fibroblasts (HF) (48h), in the assay on FaDu cells (24h) and with FaDu cells (48h) was more than 50 µM throughout. Moreover, the half-maximal effective concentration (EC50) with ARPE-19 cells (ARPE-19, 24h) is more than 50 µM; with ARPE-19 cells (ARPE-19, 48h), more than 50 µM. In addition, the concentration for half-maximal inhibition (IC50) with Jurkat cells was more than 100 µM; in the assay with BL-2 cells (BL-2, 48 h incubation) it was more than 100 µM; with BL-2 cells (BL-2, 96 h incubation), more than 100 µM.
